Test [1] deals with Alfalfa. As to the kind of experiment: Inhibition of the decomposition of chlorophyll in alfalfa. The settings on record: 200 ppm, 100 mg green plant, control 0.78. As to the method:
(§1) Thereafter chlorphyll was extracted from the leaf segments with methanol. To determine the starting state, chlorophyll was extracted with methanol from untreated leaf segments weighing 200 mg. In the control test the leaf segments, weighing 200 mg, were floated on the surface of distilled water for 4 days in the dark, and then chlorophyll was extracted from the leaf segments with methanol. […] For alfalfa and maize the chlorphyll contents of 100 mg of green plant were examined.

Test [2] concerns Maize. As to the kind of experiment: Inhibition of the decomposition of chlorophyll in maize. The settings on record: 200 ppm, 100 mg green plant, control 0.65. As for the experimental part: as §1
Test [3] deals with Libelulla wheat variety. As to the kind of experiment: Grain yield of Libelulla wheat (Example 31). The test is classed as in vivo. The following applies: for Weight of grains, increase: in vivo; for Weight of grains collected from 100 ears: seed 2 kg/ha + soil 2 kg/ha, control 215.79. As to the method: Two wheat varieties, Libelulla and Mexican 226 K, were utilized in the tests performed under large-parcel field conditions. The sowing seeds were coated with the compositions of the invention according to the wet powder seed dressing technique; a dosis of 2 kg/ha was applied.
The soil was also treated with the compositions according to the invention directly before sowing. A dose of 2 kg/ha was applied.
The grain yields of the wheat varieties, harvested from the treated and control parcels, were measured, and the total nitrogen content and protein nitrogen content of the grains were determined.

In test [4] the test system is Pannonia vine variety. Description: Berry yield and sugar content of vine, Pannonia (Example 33). It counts as in vivo. The following applies: for Berry yield: 3 x 2 kg/ha, control 216; for Sugar content: control 13.0; for Sugar yield: control 28.08. As for the experimental part:
Vine stands were sprayed with the compositions according to the invention to examine their effects exerted on the berry yield and sugar content. The compositions, diluted with water, were sprayed three times onto the plants. The first treatment was performed prior to flowering, the second one three weeks later, and the third one six weeks after the first one. The dose applied was 2 kg/ha in each of the treatments.
Comparative tests were also performed with commonly used growth regulating compositions, i.e. CCC (chlorocholine chloride), Ethrel (or Etefon; 2-chloroethylphosphonic acid) and Nevirol (N-phenyl-phthalaiminic acid). The results were compared to those observed with the untreated controls.
Two vine varieties, Pannonia and Egri leanyka, were involved in the tests.

Test [5] has as its system grass stands. Description: Crop yield and nitrogen content of grass stand (Example 34). The test is classed as in vivo. The settings on record: for Protein nitrogen content / Total nitrogen content / Crop yield: 3 x 2 kg/ha; for Protein nitrogen content: control 2.80; for Total nitrogen content: control 4.22; for Crop yield: 4 m^2 parcels, control 5.10. As for the experimental part:
Tests were performed on grass stands to examine how the compositions according to the invention influence the crop yield, furthermore the total nitrogen content and protein nitrogen content of the crop.
Parcels, 4 m^2 in area, were separated and pegged out on a grass land, and the parcels were sprayed three times with the compositions according to the invention. The liquid compositions were diluted with water prior to spraying, and spraying was repeated in every two weeks. A dose of 2 kg/ha w was applied in each of the treatments.
Thereafter the grass was mowed, the green crop was weighed, and the total nitrogen content and protein nitrogen content of the mowed grass were determined.

For test [6], the system named is maize leaves. Description: Fixation of 14CO2 in maize leaves (Example 36). The settings on record: 18 hours. As to the method:
(§2) The biological activities of cytokinin-like factors can be well characterized by measuring the intensity of the photosynthetic carbon dioxide fixation and the incorporation of labelled amino acids into the TCA-insoluble protein fraction. The intensity of photosynthetic carbon dioxide fixation was determined on maize leaves, utilizing ^14 CO2, whereas the incorporation of amino acids was examined on bean leaves, utilizing […]-^14 C.

Test [7] deals with bean leaves. Description: Incorporation of Gly-2-14C in bean leaves (Example 36). The following applies: 18 hours. As for the experimental part: as §2
For test [8], the system named is Barley. Description: Inhibition of the decomposition of chlorophyll in barley leaf segments. The settings on record: 4 days dark. As for the experimental part:
(§3) The active agent to be tested was dissolved in distilled water to form a 200 ppm solution, and leaf segments of the plants under examination, weighing 200 mg, were floated on the surface of the solution for 4 days in the dark. Thereafter chlorphyll was extracted from the leaf segments with methanol.
(§4) To determine the starting state, chlorophyll was extracted with methanol from untreated leaf segments weighing 200 mg. In the control test the leaf segments, weighing 200 mg, were floated on the surface of distilled water for 4 days in the dark, and then chlorophyll was extracted from the leaf segments with methanol.
(§5) The chlorophyll concentration was determined by measuring the extinction of the extracts at 665 mμ.

The subject of test [9] is Soybean. As to the kind of experiment: Inhibition of the decomposition of chlorophyll in soybean leaf segments. The settings on record: 4 days dark. As to the method: as §3, §4, §5
Test [10] has as its system Bean. Description: Inhibition of the decomposition of chlorophyll in bean leaf segments. The following applies: 4 days dark. As for the experimental part: as §3, §4, §5
Test [11] relates to Soybean. As to the kind of experiment: Stimulation of photosynthesis, 14CO2 incorporation, soybean leaf discs (Example 20). The settings on record: Glycine max, foliar, 2 hours. As for the experimental part:
The compositions according to the invention were diluted with distilled water to an active agent content of 200 ppm, and leaf discs of alfalfa, soybean, bean and maize, weighing 200 mg each, were floated on the surfaces of the resulting solutions for 2 hours. Thereafter the treated leaf discs were place into the assimilation chamber of an appropriate measuring apparatus, and a known amount of radioactive carbon dioxide gas (^14 CO2) was introduced into the assimilation chamber from a reservoir by means of a gas feeder for 0.5 hours under carefully controlled illumination conditions. Thereafter the leaf discs were frozen with liquid nitrogen, triturated with 50% by weight perchloric acid in a potter homogenizer, and stock solutions were prepared from the resulting mixtures. The specific radioactivities of the stock solutions were determined by liquid scintillation.
(§6) In the control test untreated leaf discs were exposed to labelled carbon, dioxide, and the amount of carbon dioxide incorporated under such conditions was regarded as standard.

In test [12] the test system is Bean. As to the kind of experiment: Stimulation of photosynthesis, 14CO2 incorporation, bean leaf discs (Example 20). The following applies: foliar, 2 hours. As to the method: The specific radioactivities of the stock solutions were determined by liquid scintillation. In the control test untreated leaf discs were exposed to labelled carbon, dioxide, and the amount of carbon dioxide incorporated under such conditions was regarded as standard.

For test [13], the system named is Maize. As to the kind of experiment: Stimulation of photosynthesis, 14CO2 incorporation, maize leaf discs (Example 20). The following applies: Zea mays, foliar, 2 hours. As to the method: The specific radioactivities of the stock solutions were determined by liquid scintillation.
as §6

The test system of test [14] is maize for silage. Description: Maize for silage field tests 1979, Boly (Example 28). It counts as in vivo. From the text: The effects of the cytokinin-like regulators on the crop yield, crude protein content and real protein content of maize for silage, observed under field conditions in the tests performed in 1979 at the Agricultural Combinate of Boly, Hungary, are listed in Table 20.

Test [15] has as its system Soybean. Description: Total and protein nitrogen content of soybean (Example 39). It counts as in vivo. From the text: The effects of 1,4-dihydroxyphthalazine and salts thereof exerted on the total nitrogen content and protein nitrogen content of soybean were examined as described in Example 27. The plants were sprayed with the compositions according to the invention at the beginning of the flowering of the apical cluster.

Each structure is given as a SMILES string.

In turn, `CCC[n+]1c[nH]c2ccccc21.[Br-]` [N--(n-Propyl)-benzimidazolium bromide, N-(n-propyl)-benzimidazolium bromide] yielded a Chlorophyll content in [1] of 0.96 mg. The same compound returned a Chlorophyll content in [2] of 0.82 mg. Also, in test [3], the “Weight of grains, increase” value is 65% and the “Weight of grains collected from 100 ears” value is given as 357.73 g. Moreover, in [4], the “Sugar content, increase” value is given as 21.5%; the “Sugar yield, increase” value was determined as 27%; the Berry yield is 226 q/ha; the Sugar content was 15.8%. In addition, the Sugar yield in test [4] turned out to be 35.70 q/ha. Besides, in test [5], the Protein nitrogen content was 3.54%, the Total nitrogen content was 5.36% and the Crop yield came to 5.27. Further, in [5] (in vivo), the “Protein nitrogen content, increase” value worked out at 26.4% and the “Total nitrogen content, increase” value is on record as 27.0%. For the same compound, in test [6] (fresh weight, control 5.72), the “Fixation of 14CO2” value is 10.52 μCi/g. Moreover, the “Fixation of 14CO2, %” value in test [6] (increase over control) is 84%. For the same compound, the “Incorporation of Gly-2-14C” value in test [7] (fresh weight, control 3.52) turned out to be 4.96 μCi/g. The “Incorporation of Gly-2-14C, %” value in test [7] (increase over control) was 41%.

In [8] (200 ppm, control 3.7), `N=C(N)N.N=C(N)N.Oc1nnc(O)c2ccccc12` [1,4-dihydroxyphthalazine diguanidine salt] yielded a Chlorophyll of 9.7 mg. For the same compound, in test [8] (Hordeum vulgare, foliar, 96 h, read-out: Promotion), the activation at 200 ppm is 162%. In addition, the Chlorophyll in [9] (200 ppm, control 3.5) is 5.4 mg. In addition, the activation at 200 ppm in [9] (Glycine max, foliar, 96 h, read-out: Promotion) turned out to be 54%. The compound also came in with a Chlorophyll in test [10] (200 ppm, control 4.2) of 6.5 mg. The activation at 200 ppm in test [10] (foliar, 96 h, read-out: Promotion) was 54%. Moreover, in [11], the activation at 200 ppm is 67%. This compound had an activation at 200 ppm in [12] of 4%. This compound gave an activation at 200 ppm in test [13] of 12%. In test [14] (control 7.5), the P2O5 content is 9.5 % of dry substance. For the same compound, the Crude protein content in [14] (control 13.2) is recorded as 16.0 % of dry substance. In addition, the Green weight in test [14] (control 310.2) was found to be 361.3 q/ha. Also, in test [14] (in vivo), the “Crude protein content, increase” value is listed as 21.3%; the “Green weight, increase” value came to 15.5%; the “P2O5 content, increase” value is on record as 27.2%. Moreover, in [3], the “Weight of grains, increase” value is listed as 7% and the “Weight of grains collected from 100 ears” value was 232.35 g. Besides, in test [4], the “Sugar content, increase” value was 53.8%; the “Sugar yield, increase” value was found to be 62%; the Berry yield amounted to 232 q/ha; the Sugar content is on record as 20.0%. This compound also returned a Sugar yield in test [4] of 46.40 q/ha. In test [5], this compound displayed a Protein nitrogen content of 2.62%, a Total nitrogen content of 3.89% and a Crop yield of 5.35. Further, the Protein nitrogen content in test [15] (control 1.9) is 3.9 % of dry substance. For the same compound, in [15] (control 2.6), the Total nitrogen content was 4.7 % of dry substance. Moreover, in [15] (in vivo), the “Protein nitrogen content, increase” value came to 105.3% and the “Total nitrogen content, increase” value stood at 81.0%.

Values taken from patent publication US4620871A (priority 1980, dated 1986).
